Laboratory results reported in US20110034557A1, “ANTIMICROBIAL COMPOSITIONS AND USES THEREOF” (MODULAR GENETICS, INC., priority 2009, published 2011).
Residues, ends and D or L forms follow the SMILES beside them.

Test system: S. aureus (ATCC 6538)
Experiment: Disk assay of growth inhibition of S. aureus on agar plates
Format: cell-based, Staphylococcus aureus
Method: The ability of FA-Glu to inhibit the growth or kill S. aureus (ATCC 6538) was examined.
S. aureus was grown in liquid culture in either Tryptic Soy Broth (TSB; Sigma), which contains casein peptone 17 g/l, soya peptone 3 g/l, sodium chloride 5 g/l, dipotassium hydrogen phosphate 2.5 g/l, and glucose 2.5 g/l or M9YE (disodium hydrogen phosphate 6 g/l, monopotassium phosphate 3 g/l, sodium chloride 0.5 g/l, ammonium chloride 1 g/l, yeast extract 3 g/l, glucose 5 g/l, and casamino acids 10 g/l) at 30° C. Disk assays were carried out on M9YE plates (M9YE liquid media plus 15 g/l agar) and YPD plates (peptone 20 g/l, yeast extract 10 g/l, glucose 20 g/l, agar 15 g/l). S. aureus was plated out evenly using a sterile cotton swab. Blank Paper disks 6 mm were placed into a sterile container and then different dilutions of FA-Glu (25 ug, 100 ug, 300 ug) that had been re-suspended in a diluted aqueous solution containing ammonium hydroxide (pH 10.2) were added to the disks. The disks were allowed to absorb and dry. Using sterile tweezers, the disks were placed onto the plates that had been swabbed with Staphylococcus aureus. They were then incubated at 28° C. over approximately 65 hours.
Disk assays were repeated as above using a commercially available acyl amino acid, cocoyl glutamate (Ajinomoto, Japan).

Compound	halo formation around disk (control experiment) (300 ug absorbed onto a disk)	regrowth in halos (disk assay plates)	halo formation around disk (disk assays repeated as above)	halo size relative to FA-Glu (same concentration and same conditions as FA-Glu)
CC(C)CCCCCCCCC[C@@H]1CC(=O)N[C@@H](CCC(=O)O)C(=O)N[C@@H](CC(C)C)C(=O)N[C@H](CC(C)C)C(=O)N[C@@H](C(C)C)C(=O)N[C@@H](CC(=O)O)C(=O)N[C@H](CC(C)C)C(=O)N[C@@H](CC(C)C)C(=O)O1 [surfactin, reference compound] (HELM PEPTIDE1{E.L.[dL].V.D.[dL].L}|CHEM1{[CC(C)CCCCCCCCC[C@H](CC(=O)[*:1])O[*:2]]}$PEPTIDE1,CHEM1,1:R1-1:R1|PEPTIDE1,CHEM1,7:R2-1:R2$$$V2.0)	produced a halo, but there was cell growth within the halo			
cocoyl glutamate [reference compound]		regrowth occurred	produced a halo	larger than halos observed using FA-Glu
